In EP3829564B1, “CURCUMIN AND HOMOTAURINE FOR USE IN PREVENTING OR TREATING COGNITIVE DECLINE FORMS” (ALERE VITAM S.R.L., priority 2018, dated 2020):

Assays:
Nrf2 = Nrf2 protein expression in nuclear extracts (Western blot); format: cell-based, rat; settings: 25 µM; for expression of the Nrf2 protein in nuclear extracts: cortical neurons, astrocytes and endothelial cells, over time, three independent Western blots
Procedure: Three different cell lines, cortical neurons, astrocytes and endothelial cells, were exposed to curcumin, homotaurine or a combination of the two compounds at the final concentration of 25 µM to evaluate the expression of the Nrf2 protein over time.
The rat hippocampal neurons (H 19-7) were purchased by the American Type Culture Collection (Manassas, VA, USA) and cultured according to the manufacturer's instructions.
The neurons were washed twice with 1X PBS. The cells were then collected in 1 ml of 1X PBS and centrifuged at 3000 rpm for 3 min at 4°C. The cell pellet was carefully resuspended in […] of cold buffer containing HEPES 10 mM (pH 7.9), KCI 10 mM, EDTA 0.1 mM, EGTA 0.1 mM, DTT 1 µM and complete protease inhibitor cocktail (Roche, Mannheim, Germany).
The pellet was then incubated on ice for 15 minutes to allow the cells to swell. After this time, 15 µl of 10% of NP-40 were added and the tube was vortexed for 10 s. The homogenate was then centrifuged at 3000 rpm for 3 min at 4°C and the nuclear pellet was resuspended in 30 µl of cold buffer consisting of HEPES 20 mM (pH 7.9), NaCl 0,4 M, EDTA 1 mM, EGTA 1 mM, DTT 1 µM and protease inhibitors. The pellet was then incubated on ice for 15 minutes and vortexed for 10-15 s every 2 minutes. The nuclear extract was finally centrifuged at 13,000 rpm for 5 minutes at 4°C. The supernatant containing the nuclear proteins was resolved with SDS-polyacrylamide gel and subjected to immunoblot analysis using anti-Nrf2 antibodies (dilution 1: 500) and anti-Sp1 (dilution 1: 500).

heme oxygenase = test: Heme oxygenase activity in treated cells; format: cell-based; settings: same doses; 6 and 24 hours after administration
Procedure: (§1) To confirm that the expression of the HO-1 gene measured at the mRNA level corresponded to an equivalent increase in heme oxygenase activity, this activity was measured at the same doses of curcumin and homotaurine 6 and 24 hours after administration.

Aβ42 peptide = target: T1, Aβ42 peptide (Homo sapiens, UniProt P05067); test: Thioflavin-T assay for inhibition of Aβ 42 aggregation; format: biochemical
T1 construct: Beta-amyloid (Aβ 1-42) aggregation studies were conducted; purchased AnaSpec, Inc, Fremont, CA
T1 sequence (P05067 672-713 limits assumed): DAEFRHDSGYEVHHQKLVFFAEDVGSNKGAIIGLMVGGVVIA
Procedure: In the present study, the fluorescence spectroscopy with thioflavin T was used to examine the effects of curcumin (CUR), homotaurine (HOM) taken individually and a combination of the two compounds as disclosed herein on the formation of toxic Aβ aggregates.
Thioflavin-T (Th-T dosage), analysis for the inhibition of the Aβ 42 aggregation (also referred to AB42).
Beta-amyloid (Aβ 1-42) aggregation studies were conducted using the SensoLyte ThT Ab42 aggregation kit (AnaSpec, Inc, Fremont, CA).
The Aβ42 peptide was dissolved in a cold analysis buffer (4 °C) and allowed to hydrate for a few minutes. The solution was centrifuged at 10,000 rpm for 5 minutes at 4°C to centrifuge any precipitated material. The fibrillation reaction was initiated by adding thioflavin dye (ThT) at a concentration of 2 mmol/L.
Three test samples (CUR; HOM; CUR + HOM) were added in a volume of 5 µL and the reaction was started by adding the Aβ42 peptide solution. The final volume of the test samples was 100 µL. At the same time, the positive control and the negative control containing nordihydroguaiaretic acid (NDGA), a well-defined inhibitor of Ab aggregation, at the final concentration of 100 µmol/L were established. Fluorescence intensity was measured at 37°C with Ex/Em ¼ 440 nm/484 nm and by shaking of 15s between readings using the microplate reader (Synergy H1; BioTek, Winooski, VT). The fluorescence intensity measurements expressed as relative fluorescence units (RFU) were taken for 90 minutes at 5-minute intervals.

HO-1 [1] = settings: 6 hours; for increase in HO-1 mRNA: 5, 10, 15 and 30 µM, cortical neurons, astrocytes and endothelial cells; for concentration of maximum HO-1 mRNA: tested 5, 10, 15 and 30 µM
Procedure: as §1

HO-1 [2] = test: cells; settings: 6 h, read-out: maximum increase in HO-1 mRNA, relative to the non-inducible paralogue HO-2 gene
Procedure: as §1

Aβ42 oligomer = target: T2, Aβ42 oligomer (Homo sapiens, UniProt P05067); settings: prior art statement; cited from earlier work
T2 construct: prevents the formation and the toxicity of Aβ42 oligomer
T2 sequence (P05067 672-713): as the sequence (P05067 672-713 limits assumed) above

Aβ40 = Aβ40 (Homo sapiens, UniProt P05067); settings: compared with ibuprofen and naproxen; cited from earlier work
Aβ40, sequence (P05067 672-711): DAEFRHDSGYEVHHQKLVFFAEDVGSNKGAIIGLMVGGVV

[3] = system: transgenic Alzheimer's mouse (Tg2576); settings: dietary regime containing curcumin for 6 months; cited from earlier work
[4] = fibrillation time 30 min and 90 min, vs control

SMILES: COc1cc(C=CC(=O)CC(=O)C=Cc2ccc(O)c(OC)c2)ccc1O [curcumin, 1,7-bis [4-Hydroxy-3-methoxyphenyl]-1,6-heptadiene-3,5-dione]
- time Nrf2 expression remained upregulated (Nrf2; after treatment): up to 12 hours
- expression of the Nrf2 protein in nuclear extracts (Nrf2): significant timedependent increase
- heme oxygenase activity (heme oxygenase): comparable to the results obtained by looking at cellular mRNAs
- Aβ aggregation (ThT fluorescence) (Aβ42 peptide; [4]): significantly influence the fibrillation reaction
- increase in HO-1 mRNA (HO-1 [1]): dosedependent increase in HO-1 mRNA
- concentration of maximum HO-1 mRNA (HO-1 [1]): 15 µM
- maximal fold induction at 15 µM (HO-1 [2]): ~6
- concentration preventing formation and toxicity of Aβ42 oligomer (Aβ42 oligomer): 0.1 to 11.0 µM
- Aβ40 aggregation inhibition (Aβ40): better than ibuprofen and naproxen
- cognitive deficits induced by Aβ amyloid [3]: reverses the cognitive deficits induced by Aβ amyloid
- indices of oxidative damage and inflammation in the brain [3]: suppression of the indices of the oxidative damage and the inflammation in the brain

SMILES: CC(Cc1ccc(O)c(O)c1)C(C)Cc1ccc(O)c(O)c1 (centres unmarked) [NDGA, nordihydroguaiaretic acid]
- Aβ aggregation (ThT fluorescence) (Aβ42 peptide; 100 µmol/L, control inhibitor): inhibitor of the Aβ aggregation (p <.001)

SMILES: NCCCS(=O)(=O)O [homotaurine, 3-amino-1-propanesulfonic acid]
- expression of the Nrf2 protein in nuclear extracts (Nrf2): lower increase in nuclear Nrf2
- heme oxygenase activity (heme oxygenase): comparable to the results obtained by looking at cellular mRNAs
- Aβ aggregation (ThT fluorescence) (Aβ42 peptide; [4]): significantly influence the fibrillation reaction
- increase in HO-1 mRNA (HO-1 [1]): much less active in inducing the expression of the HO-1 gene
- concentration of maximum HO-1 mRNA (HO-1 [1]): 15 µM
